From patent publication US7538220B2, “Intermediates in the preparation of homocamptothecin analogs” (University of Pittsburgh - of the Commonwealth System of …, priority 1999, dated 2009)

Assays:
[1] = Fluorescence anisotropy titration, equilibrium binding to DMPC small unilamellar vesicles; type: physicochemical; settings: for KDMPC overall association constant: electroneutral DMPC vesicles, PBS pH 7.4, 37° C., K values subject to 10% uncertainty
Experimental: As a consequence of the brilliant fluorescence emissions from the newly synthesized homosilatecans (a summary of the spectral parameters can be found in Table 1), the lipid bilayer adsorption isotherms summarized in FIG. 4 were relatively free from any background signal. The method of fluorescence anisotropy titration was used to construct the adsorption isotherms. The experiments were conducted at drug concentrations of 1 μM in PBS buffer (37° C.). […] Because of the potential of the lactone ring of the homosilatecans and camptothecins to hydrolyze in PBS, anisotropy values at each lipid concentration were determined immediately (approx. 1 min.) following the addition of the lactone form of each agent to the liposome suspension as to minimize any possibility of conversion to the carboxylate form. Using drug concentrations of 1 μM and long pass filters to isolate emitted light from background signal (that is, scattered exciting light and extraneous fluorescence signal resulting from the possible presence of impurities), signal levels from drugs dissolved in PBS buffer were typically 99.97% in the absence of membrane and greater than 98% in the presence of membrane. Adsorption isotherms were used to determine overall association constants for the homosilatecan, silatecan, and camptothecin drugs. Overall association constants are defined as: K=[AB]/[AF][L] where [AB] represents the concentration of bound drug, [AF] represents the concentration of free drug, and [L] represents the total lipid concentration in the vesicle suspension. This equation is valid when the concentration of free lipid is approximately equal to the concentration of total lipid (that is, the concentration of free lipid is in significant excess over the concentration of bound drug). Provided this condition is satisfied, K may be determined from the inverse of the slope of a double reciprocal plot. In such a double reciprocal plot, 1/fraction of the total drug bound is plotted vs. 1/lipid concentration, with a y-intercept value of 1 (for a system displaying binding site homogeneity). Such double-reciprocal plots for the associations of the new homosilatecans analogs (both lactone and carboxylate forms) with DMPC and DMPG small unilamellar vesicle (SUV) preparations were linear with good correlation coefficients.
The studies summarized in Table 2 examine the structural basis of homosilatecan associations for lipid bilayers. Two types of membranes were included in these studies which were conducted under near physiological conditions of pH and temperature; these membranes include fluid-phase and electroneutral L-α-dimyristoylphosphatidyl-choline (DMPC); and fluid-phase and negatively-charged L-α-dimyristoylphosphatidylglycerol (DMPG). DMPC and DMPG have identical chain length but the charges on their head groups differ.
In the studies of Table 2, binding isotherms were constructed using the method of fluorescence anisotropy titration as discussed above, and K values were determined from the slopes of the double-reciprocal plots. The K values are subject to 10% uncertainty. One of the most striking features of the data contained in Table 2 is the strong modulation which can be achieved through the creation of A,B,E-ring modified camptothecins (for example, the homosilatecans known as DB-38, DB-90, and DB-91) or B,E-ring modified camptothecins (for example, the homosilatecan known as DB-81). Homosilatecans containing either a sole substitution at the 7 position or dual substitution at the 7 and 10 positions have been created and found to display very high lipophilicities. Included in Table 2 are camptothecin compounds (topotecan and camptothecin). For DB-81, the lipophilicity for DMPC membranes relative to corresponding value for topotecan increases over 1,400-fold. Data for these agents were included to show the highly lipophilic nature of the new homocamptothecins relative to compounds such as topotecan and camptothecin. […]

[2] = Lactone ring stability in human plasma by HPLC; type: in vitro ADME; settings: 3 hours, 37° C., pH 7.5, 1 μM
Experimental: FIG. 13 depicts the improved stabilities of four novel homosilatecans of the current invention following incubation in PBS containing 30 mg/ml human serum albumin at 37° C. […] All the experiments of FIG. 14 were conducted in human plasma at 37° C. Plasma samples were continuously aerated by a stream of blood gas resulting in the maintenance of pH at values of 7.5±0.1.
(§1) HPLC solvents were from Fisher Scientific.
To characterize the stabilities of the novel silatecans of interest in human plasma, frozen plasma was incubated at 37° C. in order to thaw. Blood gas was bubbled through the plasma to adjust the pH close to 7.5. […] The samples were then allowed to incubate further at 37° C. […] Tubes were vortexed for 10 sec and centrifuged in a tabletop microcentrifuge at 8000 rpm for 45 sec. […] The sample was analyzed by HPLC as soon as possible. The data analysis was as described for drug in PBS only samples as described above. Blood gas was continuously bubbled through the plasma samples to pH at 7.5+/−[…].

[3] = Lactone ring stability in PBS suspensions of albumin-free red blood cells by HPLC; type: in vitro ADME, human; settings: albumin-free RBC in PBS (5±1)×10^6 cell/μL, 37° C.
Experimental: FIG. 15 depicts the stabilities of four novel homosilatecans of the current invention in PBS suspensions containing physiologically-relevant concentrations [(5±1)×10^6 cell/μL] of albumin-free red blood cells. Stability characteristics were determined at 37° C. using HPLC methods.
as §1
To study the stabilities of the novel homosilatecans in the presence of physiologically relevant concentrations of red blood cells (RBC), the following experiments were performed. Packed Red blood cells obtained from the Central Kentucky Red Cross and were counted using a Coulter Cell Counter. The number of cells was adjusted to 5×10^12 Cells/L using PBS, pH 7.4 and incubated at 37° C. for 30 min. […] RBCs were incubated at 37° C. for 30 min and the pH remeasured to ensure that it was within the same range as before the assays were started. […] Aliquots of drug in DMSO were added to RBC suspensions in PBS to result in final drug concentration of 1 μM. […] The sample was analyzed on HPLC as soon as possible.

[4] = test system: MDA-MB-435 tumorigenic metastatic human breast cancer cells; assay: Cytotoxicity, sulphorrhodamine B (SRB) assay; type: cell-based; settings: MDA-MB-435, 72 h, read-out: IC50 (w/o HSA)
Experimental: Cytotoxicity measurements were conducted using MDA-MB-435 tumorigenic human breast cancer cells. The cells were exposed to a range of drug concentrations for 72 hr exposure periods and then viability was assessed using a sulphorrhodamine B (SRB) assay. The SRB measures the total protein levels in the living cells. Proteins from dead cells are lysed and removed in the washing step before TCA fixation. However, it is possible that cells in the early stage of death still have their membrane integrity and therefore retain the protein contents inside. As a result, the optical density at 490 nm can sometimes be overestimated and the cytotoxicity underestimated. […] The SRB assay is now a well regarded assay and was recently approved by NCl as a standard assay for anticancer drug screening. […] Each IC50 value represents the average of three separate trials with each dosage level studied in triplicate.

| SMILES | KDMPC overall association constant [1] | % Lactone [2] | % Lactone ([3]; 3 hours) | % Lactone ([3]; 24 hours) | IC50 [4] | increase of lipophilicity for DMPC membranes relative to topotecan ([1]; 1 μM, pH 7.4) | decrease in DMPC binding upon ring opening (lactone vs carboxylate) [1] |
| --- | --- | --- | --- | --- | --- | --- | --- |
| CCC1(O)CC(=O)OCc2c1cc1n(c2=O)Cc2c-1nc1ccc(N)cc1c2[Si](C)(C)C (racemic) [DB-38, 5-Ethyl-1,4,5,13-tetrahydro-5-hydroxy-10-amino-12-trimethylsilyl-3H,15H-oxepino[3′,4′:6,7]indolizino[1,2-b]quinoline-3,15-dione] | 1400 M⁻¹ | 40.3 ± 2.1% | 84.8 ± 1.5% | 39.4 ± 1.2% | 0.02 µM |  |  |
| CCC1(O)CC(=O)OCc2c1cc1n(c2=O)Cc2c-1nc1ccccc1c2[Si](C)(C)C(C)(C)C (racemic) [DB-81, 5-Ethyl-1,4,5,13-tetrahydro-5-hydroxy-12-tert-butyldimethylsilyl-3H,15H-oxepino[3′,4′:6,7]indolizino[1,2-b]quinoline-3,15-dione] | 14400 M⁻¹ | 85.0 ± 4.3% | 92.0 ± 0.0% | 55.8 ± 1.7% | 0.077 ± 0.013 µM | over 1,400 fold |  |
| CCC1(O)CC(=O)OCc2c1cc1n(c2=O)Cc2c-1nc1ccc(N)cc1c2[Si](C)(C)C(C)(C)C (racemic) [DB-90, 5-Ethyl-1,4,5,13-tetrahydro-5-hydroxy-10-amino-12-tert-butyldimethylsilyl-3H,15H-oxepino[3′,4′:6,7]indolizino[1,2-b]quinoline-3,15-dione] | 8600 M⁻¹ | 71.1 ± 3.5% | 85.5 ± 0.4% | 38.5 ± 1.4% | 0.073 ± 0.008 µM |  | 10 fold |
| CCC1(O)CC(=O)OCc2c1cc1n(c2=O)Cc2c-1nc1ccc(O)cc1c2[Si](C)(C)C(C)(C)C (racemic) [DB-91, 5-Ethyl-1,4,5,13-tetrahydro-5-hydroxy-10-hydroxy-12-tert-butyldimethylsilyl-3H,15H-oxepino[3′,4′:6,7]indolizino[1,2-b]quinoline-3,15-dione] |  | 61.5 ± 3.9% | 88.5 ± 0.2% | 42.6 ± 2.6% | 0.115 ± 0.005 µM |  | 10 fold |
